Measured values reported in PMC7181660, “A novel specific PERK activator reduces toxicity and extends survival in Huntington's disease models” (Scientific Reports, 2020).
Where two headings read alike, the source gives them in different places.

Assays:
Test in all cases: biochemical
Type in all cases: biochemical
[1] = target: panel of 391 kinases (Homo sapiens, UniProt Q9UBS0); conditions: p70S6Kb/RPS6KB2, MK-28 1 µM, ATP 1 µM
[2] = target: panel of 391 kinases (Homo sapiens, UniProt Q9UIK4); conditions: DAPK2, MK-28 1 µM, ATP 1 µM
[3] = target: panel of 391 kinases (Homo sapiens, UniProt Q99683); conditions: ASK1/MAP3K5, MK-28 1 µM, ATP 1 µM
[4] = target: panel of 391 kinases (Homo sapiens, UniProt Q8NEV4); conditions: MYO3A, MK-28 1 µM, ATP 1 µM
[5] = target: panel of 391 kinases (Homo sapiens, UniProt O95835); conditions: LATS1, MK-28 1 µM, ATP 1 µM
[6] = target: panel of 391 kinases (Homo sapiens, UniProt P57059); conditions: SIK1, MK-28 1 µM, ATP 1 µM
[7] = target: panel of 391 kinases (Homo sapiens, UniProt P16591); conditions: FER, MK-28 1 µM, ATP 1 µM
[8] = target: panel of 391 kinases (Homo sapiens, UniProt Q16832); conditions: DDR2, MK-28 1 µM, ATP 1 µM
[9] = target: panel of 391 kinases (Homo sapiens, UniProt Q6P5Z2); conditions: PKN3/PRK3, MK-28 1 µM, ATP 1 µM
[10] = target: panel of 391 kinases (Homo sapiens, UniProt P35916); conditions: FLT4/VEGFR3, MK-28 1 µM, ATP 1 µM
[11] = target: panel of 391 kinases (Homo sapiens, UniProt Q9P0L2); conditions: MARK1, MK-28 1 µM, ATP 1 µM
[12] = target: panel of 391 kinases (Homo sapiens, UniProt P43403); conditions: ZAP70, MK-28 1 µM, ATP 1 µM
[13] = target: panel of 391 kinases (Homo sapiens, UniProt Q86YV6); conditions: MYLK4, MK-28 1 µM, ATP 1 µM
[14] = target: panel of 391 kinases (Homo sapiens, UniProt P08631); conditions: HCK, MK-28 1 µM, ATP 1 µM
[15] = target: panel of 391 kinases (Homo sapiens, UniProt Q6XUX3); conditions: RIPK5, MK-28 1 µM, ATP 1 µM
[16] = target: panel of 391 kinases (Homo sapiens, UniProt P32298); conditions: GRK4, MK-28 1 µM, ATP 1 µM
[17] = target: panel of 391 kinases (Homo sapiens, UniProt O95819); conditions: HGK/MAP4K4, MK-28 1 µM, ATP 1 µM
[18] = target: panel of 391 kinases (Homo sapiens, UniProt P43405); conditions: SYK, MK-28 1 µM, ATP 1 µM
[19] = target: panel of 391 kinases (Homo sapiens, UniProt Q13131); conditions: compound at 1 µM, single dose in duplicates, 1 µM ATP; for remaining activity at 1 µM: read-out: % Enzyme Activity (relative to DMSO controls)
[20] = target: panel of 391 kinases (Homo sapiens, UniProt Q9Y5S2); conditions: MRCKb/CDC42BPB, MK-28 1 µM, ATP 1 µM
[21] = target: panel of 391 kinases (Homo sapiens, UniProt Q02763); conditions: TIE2/TEK, MK-28 1 µM, ATP 1 µM
[22] = target: panel of 391 kinases (Homo sapiens, UniProt P08922); conditions: ROS/ROS1, MK-28 1 µM, ATP 1 µM
[23] = target: panel of 391 kinases (Homo sapiens, UniProt P80192); conditions: MLK1/MAP3K9, MK-28 1 µM, ATP 1 µM
[24] = target: panel of 391 kinases (Homo sapiens, UniProt Q96PN8); conditions: TSSK3/STK22C, MK-28 1 µM, ATP 1 µM
[25] = target: panel of 391 kinases (Homo sapiens, UniProt P05129); conditions: PKCg, MK-28 1 µM, ATP 1 µM
[26] = read-out: % Enzyme Activity (relative to DMSO controls)

Question: How did the “% Enzyme Activity (relative to DMSO controls)” value [1] turn out when `CN(/N=C\c1ccc(O)c(O)c1)c1nc(-c2ccccc2)cc(-c2ccccc2)n1` [MK-28] was run?
Answer: 91.85%

Question: And the remaining activity at 1 µM [1, 26]?
Answer: 93.6%

Question: What about the “% Enzyme Activity (relative to DMSO controls)” value [2] of the same molecule?
Answer: 98.71%

Question: What about the remaining activity at 1 µM [2, 26] of the same molecule?
Answer: 104%

Question: And the “% Enzyme Activity (relative to DMSO controls)” value [3]?
Answer: 97.76%

Question: What about the remaining activity at 1 µM [3, 26] of the same molecule?
Answer: 100%

Question: What about the “% Enzyme Activity (relative to DMSO controls)” value [4] of the same molecule?
Answer: 104.11%

Question: And the remaining activity at 1 µM [4, 26]?
Answer: 104%

Question: And the “% Enzyme Activity (relative to DMSO controls)” value [5]?
Answer: 99.22%

Question: And the remaining activity at 1 µM [5, 26]?
Answer: 101%

Question: What about the “% Enzyme Activity (relative to DMSO controls)” value [6] of the same molecule?
Answer: 83.98%

Question: And the remaining activity at 1 µM [6, 26]?
Answer: 85%

Question: What about the “% Enzyme Activity (relative to DMSO controls)” value [7] of the same molecule?
Answer: 101.21%

Question: And the remaining activity at 1 µM [7, 26]?
Answer: 102%

Question: What about the “% Enzyme Activity (relative to DMSO controls)” value [8] of the same molecule?
Answer: 95.21%

Question: And the remaining activity at 1 µM [8, 26]?
Answer: 97.4%

Question: What about the “% Enzyme Activity (relative to DMSO controls)” value [9] of the same molecule?
Answer: 98.68%

Question: And the remaining activity at 1 µM [9, 26]?
Answer: 101%

Question: What about the “% Enzyme Activity (relative to DMSO controls)” value [10] of the same molecule?
Answer: 92.88%

Question: What about the remaining activity at 1 µM [10, 26] of the same molecule?
Answer: 94.1%

Question: What about the “% Enzyme Activity (relative to DMSO controls)” value [11] of the same molecule?
Answer: 94.22%

Question: What about the remaining activity at 1 µM [11, 26] of the same molecule?
Answer: 94.5%

Question: What about the “% Enzyme Activity (relative to DMSO controls)” value [12] of the same molecule?
Answer: 95.37%

Question: What about the remaining activity at 1 µM [12, 26] of the same molecule?
Answer: 97.8%

Question: And the “% Enzyme Activity (relative to DMSO controls)” value [13]?
Answer: 92.82%

Question: And the remaining activity at 1 µM [13, 26]?
Answer: 97.6%

Question: What about the “% Enzyme Activity (relative to DMSO controls)” value [14] of the same molecule?
Answer: 73.97%

Question: What about the remaining activity at 1 µM [14, 26] of the same molecule?
Answer: 75.6%

Question: What about the “% Enzyme Activity (relative to DMSO controls)” value [15] of the same molecule?
Answer: 103.40%

Question: What about the remaining activity at 1 µM [15, 26] of the same molecule?
Answer: 105%

Question: What about the “% Enzyme Activity (relative to DMSO controls)” value [16] of the same molecule?
Answer: 97.72%

Question: And the remaining activity at 1 µM [16, 26]?
Answer: 99.2%

Question: And the “% Enzyme Activity (relative to DMSO controls)” value [17]?
Answer: 95.38%

Question: And the remaining activity at 1 µM [17, 26]?
Answer: 102%

Question: And the “% Enzyme Activity (relative to DMSO controls)” value [18]?
Answer: 91.75%

Question: What about the remaining activity at 1 µM [18, 26] of the same molecule?
Answer: 93%

Question: What about the “% Enzyme Activity (relative to DMSO controls)” value ([19]; kinase AMPK(A1/B1/G1)) of the same molecule?
Answer: 95.82%

Question: And the remaining activity at 1 µM ([19]; kinase AMPK(A1/B1/G1))?
Answer: 96.3%

Question: What about the “% Enzyme Activity (relative to DMSO controls)” value ([19]; kinase AMPK(A1/B1/G2)) of the same molecule?
Answer: 98.77%

Question: What about the remaining activity at 1 µM ([19]; kinase AMPK(A1/B1/G2)) of the same molecule?
Answer: 101%

Question: And the “% Enzyme Activity (relative to DMSO controls)” value ([19]; kinase AMPK(A1/B1/G3))?
Answer: 86.51%

Question: And the remaining activity at 1 µM ([19]; kinase AMPK(A1/B1/G3))?
Answer: 87%

Question: And the “% Enzyme Activity (relative to DMSO controls)” value ([19]; kinase AMPK(A1/B2/G1))?
Answer: 106.30%

Question: And the remaining activity at 1 µM ([19]; kinase AMPK(A1/B2/G1))?
Answer: 108%

Question: What about the “% Enzyme Activity (relative to DMSO controls)” value [20] of the same molecule?
Answer: 100.39%

Question: What about the remaining activity at 1 µM [20, 26] of the same molecule?
Answer: 101%

Question: And the “% Enzyme Activity (relative to DMSO controls)” value [21]?
Answer: 98.55%

Question: What about the remaining activity at 1 µM [21, 26] of the same molecule?
Answer: 99%

Question: What about the “% Enzyme Activity (relative to DMSO controls)” value [22] of the same molecule?
Answer: 99.57%

Question: What about the remaining activity at 1 µM [22, 26] of the same molecule?
Answer: 100%

Question: And the “% Enzyme Activity (relative to DMSO controls)” value [23]?
Answer: 91.08%

Question: And the remaining activity at 1 µM [23, 26]?
Answer: 91.3%

Question: What about the “% Enzyme Activity (relative to DMSO controls)” value [24] of the same molecule?
Answer: 86.26%

Question: And the remaining activity at 1 µM [24, 26]?
Answer: 88%

Question: What about the “% Enzyme Activity (relative to DMSO controls)” value [25] of the same molecule?
Answer: 101.88%

Question: And the remaining activity at 1 µM [25, 26]?
Answer: 104%
